# Where a SMILES comes first, the peptide text is derived from it. The star is where a group is joined. Cbz = O=C(OCc1ccccc1)*; CH2F = FC*
# Legend:
# [1] = test system: cultured cardiac myocytes; test: Induction of apoptosis of cultured cardiac myocytes by recombinant eIF5A proteins (TUNEL / cardiac myosin double staining); type: cell-based, rat; conditions: recombinant protein 10 μg/mL
# [2] = Isoelectric point by two-dimensional gel electrophoresis and Western blotting; type: physicochemical; conditions: two-dimensional gel electrophoresis, tagged recombinant protein
# Experimental: Quail muscle cells were transfected with eIF5A-myc-His vector and myc- and His-tagged recombinant eIF5A protein was collected from the cytoplasm of the transfected cells. Similarly, quail muscle cells were trasfected with the eIF5A-FLAG-His vector, the cells were incubated in hypoxia/reoxygenation-conditioned PBS (RCP), and a FLAG- and His-tagged recombinant eIF5A protein was collected from the culture supernatant. The proteins were treated with Ni-NTA Purification System (Invitrogen), and after that gel filtration was performed with phosphate buffer containing 0.15 M NaCl (pH 7.4) using Superdex 200™ 10-300GL (GE Healthcare, 1.0×30 cm, bed capacity 24 mL) to purify the myc- and FLAG-tagged recombinant eIF5A proteins. The first dimensional isoelectric focusing was performed with Immobiline DryStrip (pH 4 to 7, GE Healthcare) which had been allowed to swell overnight with a sample dissolved in 7 M urea, 2 M thiourea, 4% CHAPS, 65 mM dithioerythritol [DTE], 2% IPG buffer pH 4 to 7 (GE Healthcare) and bromophenol blue [BPB]. The electrophoresis was performed at a voltage of 30 V for 7 hours, at 60V for 7 hours, at 60 to 200 V for 30 min, at 200 to 500 V for 30 min, at 500 to 1000 V for 30 min, at 1000 to 8000 V for 30 min, and at 8000 V for 2 hours (19.4 kVh in total). The second dimensional SDS-PAGE was performed with a gel (concentrated gel 4% acrylamide, 2.6% piperazine diacrylamide [PDA], separating gel 12% acrylamide, 2.6% PDA) and the electrophoresis was performed at 12 mA for 2 hours. The gel was transferred to a PVDF membrane, and then the myc- and FLAG-tagged recombinant eIF5A proteins were analyzed by Western blotting. First, the proteins were analyzed using anti-myc monoclonal antibody (Invitrogen), biotinylated anti-mouse IgG antibody and Vectastain ABC-AP Kit (Vector) and then detected with alkaline phosphatase and chemiluminescence. Then, the proteins were analyzed using anti-FLAG monoclonal antibody (M2, Sigma) and horseradish peroxidase (HRP)-labeled anti-mouse IgG antibody and detected with Konica Immunostain HRP-1000 Kit (Konica Corporation).
# (1) As thioredoxin has been known to act as antioxidant by reducing other proteins and play a protective role against oxidative stress-induced cell injury, eIF5A was considered to be a candidate of an apoptosis inducing humoral factor. eIF5A is the only protein known to contain a unique amino acid hypusine, which is formed post-translationally by two-steps of an enzymatic reaction. eIF5A has been known to be localized mainly in the cytoplasm under normal conditions where hypusinated eIF5A facilitates translation of mRNAs involved in cell proliferation. However, no study to date has reported that eIF5A can be released extracellularly and act as an apoptosis-inducing factor. To confirm that eIF5A is actually released from cardiac myocytes in response to hypoxia/reoxygenation and the released eIF5A can induce apoptosis of cardiac myocytes, quail muscle cells (CRL-1962, ATCC) were transfected with an expression vector containing the FLAG- and His-tagged human eIF5A gene, incubated with hypoxic PBS, and then incubated with normoxic PBS. The reoxygenation-conditioned PBS (RCP) was collected, concentrated, and purified using Ni-NTA Purification System (Invitrogen), and recombinant protein ([RCP] re-eIF5A) was extracted by gel filtration. (2) Similarly, recombinant human eIF5A ([cytosolic] re-eIF5A) was extracted from cytosolic fractions of the untreated transfected cells. (3) After these recombinant eIF5A proteins were separated by two-dimensional electrophoresis, the resultant was analyzed by Western blotting with anti-FLAG M2 mAb (Sigma) (FIG. 2b). […] Specifically, spots having higher pI values, such as hypusinated eIF5A (spots B and B′ in FIG. 2b), and spots having lower pI values, such as unhypusinated eIF5A (spots A and A′ in FIG. 2b) were identified. There was no detectable spots of deoxyhypusinated intermediate (references Taylor, C. A., et al. Exp. Cell Res. 313, 437-449). […]
# [3] = test system: cardiac myocytes; test: Effect of PARP-1 inhibitor and caspase inhibitor on apoptosis of cardiac myocytes induced by recombinant eIF5A (RCP) (TUNEL); type: cell-based, rat; conditions: inhibitor added 1 hour before recombinant eIF5A (RCP), 3-aminobenzamide 2 mM, Z-VAD.fmk 100 μM, TUNEL at 72 hours
# [4] = test system: Hela cells; test: Apoptosis induction by recombinant eIF5A (TUNEL), HeLa cells; type: cell-based, human; conditions: 10 μg/ml, 30 to 36 hours
# Experimental: (§1) Quail muscle cells (ATCC; CRL-1962), HeLa cells, human hepatocellular carcinoma cells (ATCC; HB-8064), and human glioblastoma cells (ATCC; CRL-1690) were incubated on a culture slide (BD Falcon) until they were confluent. These cells were treated with a recombinant eIF5A (10 μg/ml) for a predetermined time and fixed. Terminal deoxynucleotidyl transferase nick-end-labeled (TUNEL) staining was performed in situ with an Apoptosis Detection Kit (Takara Bio Inc.).
# [5] = test system: human glioblastoma cells (ATCC; CRL-1690); test: Apoptosis induction by recombinant eIF5A (TUNEL), glioblastoma cells; type: cell-based; conditions: 10 μg/ml, 30 to 36 hours
# Experimental: as §1
# [6] = test system: cultured cardiac myocytes; test: Release of cytochrome c from mitochondria (Western blot of cytosolic fraction); type: cell-based, rat; conditions: peak at 48 hours
# Experimental: Cultured cardiac myocytes were treated with a recombinant eIF5A for a predetermined time. Nucleic, mitochondrial, and cytosolic fraction of the cells were prepared as described in Non Patent Literatures 1 and 2. Briefly, 3×10^6 cells were washed in PBS, and suspended in 250 μl of a lysis buffer (250 mM sucrose, 50 mM Pipes/KOH, pH7.4, 50 mM KCl, 5 mM EGTA, 2 mM MgCl2, 1 mM DTT, and 1 mM PMSF). After 30 min on ice, the cells were lysed with 40 strokes using pestle B in a Dounce homogenizer, and centrifuged at 80 g for 10 min. The pellets were collected as the nucleic fraction. Then, the supernatants were prepared from cell lysates by centrifugation at 20,000 g for 20 min. The pellets were collected as the mitochondrial fraction, and the supernatants were regarded as the cytosolic fraction. The nucleic, mitochondrial, and cytosolic fractions were subjected to Western blot analysis with rabbit anti-AIF mAb (E20; Epitomics Inc., CA, USA) or mouse anti-cytochrome c mAb (7H, 8.2; C12; Lab Vision Corp., CA, USA). The antibody-antigen complexes were developed with a chemiluminescence system using alkalinephosphatase (New England Biolabs, Inc.).
# [7] = test system: cultured cardiac myocytes; test: Activation of caspase-3 (Western blot); type: cell-based, rat; conditions: peak at 48 hours
# [8] = test system: cultured cardiac myocytes; test: Subcellular translocation of apoptosis-inducing factor (AIF) in cultured cardiac myocytes; type: cell-based, rat; conditions: double staining for AIF and Hoechst 33342
# Experimental: Tyramide Signal Amplification (TSA) technology was used for fluorescence (TSA™ Biotin System, NEN Life Science Products, PerkinElmer; according to the manufacture's instruction). Cardiac myocytes were treated with a recombinant eIF5A (RCP) for a predetermined time and fixed with 4% paraformaldehyde in PBS for 15 min. The cells were washed with PBS and then incubated with rabbit anti-AIF mAb (E20; Epitomics Inc.) for 1 hour. The cells were washed, then incubated with biotinylated anti-rabbit IgG antibody (Chemicon International, Inc.) for 1 hour, washed, and incubated with streptavidin-horseradish peroxidase (Vector) for 30 min. The cells were washed in TNT buffer (0.1 M Tris-HCl, pH 7.5, 0.15 M NaCl, 0.05% Tween 20) and then incubated with biotinylated-tyramide for appropriate time (3 to 10 min). The cells were washed in TNT buffer and then incubated with FITC-labeled avidin-D (Vector) for 30 min. Nuclei were stained with 1 μg·mL^−1 Hoechst 33342 (DOJINDO Laboratories, Kumamoto, Japan). Confocal laser microscopy was performed on LSM510 Laser Scanning Microscope (Zeiss).
# [9] = test system: Quail muscle cells (ATCC; CRL-1962); test: Apoptosis induction by recombinant eIF5A (TUNEL), quail muscle cells; type: cell-based; conditions: 10 μg/ml, normal cells, up to 72 hours
# Experimental: as §1
# [10] = test system: human hepatocellular carcinoma cells (ATCC; HB-8064); test: Apoptosis induction by recombinant eIF5A (TUNEL), hepatocellular carcinoma cells; type: cell-based; conditions: 10 μg/ml, 30 to 36 hours
# Experimental: as §1
# [11] = test system: cardiac myocytes; test: Electron microscopy of nuclear chromatin in cardiac myocytes; type: cell-based, rat
# Experimental: The cardiac myocytes were treated with recombinant eIF5A for a predetermined period. The cells were fixed in 2% glutaraldehyde, postfixed in 2% osmium tetraoxide, dehydrated in ethanol, and embedded in a resin. Ultrathin section were prepared, stained with uranyl acetate and lead citrate, and examined with an electron microscope (H-7000, HITACHI, Japan).
# [12] = test system: cultured cardiac myocytes; test: Annexin V staining of cultured cardiac myocytes; type: cell-based, rat
# Experimental: Cardiac myocytes were treated with a recombinant eIF5A (RCP) for a predetermined time. The cells were incubated with biotinylated-annexin V in 1× binding buffer (Annexin V-Biotin Apoptosis Detection Kit, BioVision Inc.) for 5 min and then fixed with 2% paraformaldehyde in PBS for 15 min. After washing in PBS, the cells were incubated with streptavidin-horseradish peroxidase (Vector) for 30 min. The subsequent procedures for immunofluorescence by TSA technology were the same as for AIF. To distinguish cardiac myocytes from non-muscle cells, cells were further incubated with mouse anti-cardiac myosin (clone CMA19) mAb (Non Patent Literature 1), followed by incubation with tetramethyl rhodamine isothiocyanate (TRITC)-conjugated anti-mouse IgG antibody, and then photographed in a fluorescence microscope.
compound,measurement,setting,value
recombinant mutant eIF5A (K50A) derived from RCP: K50A mutant eIF5A secreted into reoxygenation-conditioned PBS by transfected quail muscle cells,induction of apoptosis of cultured cardiac myocytes (TUNEL and cardiac myosin double staining),[1],only partially induced apoptosis
"secreted unhypusinated eIF5: unhypusinated form of secreted eIF5A from RCP, spot A′",isoelectric point,[2],approx. 5.3
same,isoelectric point,[2]; listed as spot A′,5.3
COC(=O)C[C@H](NC(=O)[C@H](C)NC(=O)[C@@H](NC(=O)OCc1ccccc1)C(C)C)C(=O)CF [Z-VAD.fmk] (Cbz-Val-Ala-Asp(OMe)-CH2F),inhibition of apoptosis induction by recombinant eIF5A (RCP),[3],~70%
NC(=O)c1cccc(N)c1 [3-aminobenzamide],inhibition at 2000 µM,"[3]; Rattus norvegicus, read-out: inhibition of apoptosis induction by recombinant eIF5A (RCP)",~30%
cytosolic (mostly unhypusinated) eIF5A: recombinant human eIF5A extracted from cytosolic fractions of untreated transfected cells [reference compound],induction of apoptosis of cultured cardiac myocytes (TUNEL and cardiac myosin double staining),[1],almost no cardiac myocytes underwent apoptosis
"cytosolic hypusinated eIF5A: hypusinated form of conventionally known cytosolic eIF5A, spot B in two-dimensional electrophoresis [reference compound]",isoelectric point,[2],approx. 5.5
same,isoelectric point,[2]; listed as spot B,5.5
"secreted hypusinated eIF5A: hypusinated form of secreted eIF5A from RCP, spot B′",isoelectric point,[2],approx. 5.4
same,isoelectric point,[2]; listed as spot B′,5.4
"cytosolic unhypusinated eIF5A: unhypusinated form of conventionally known cytosolic eIF5A, spot A in two-dimensional electrophoresis [reference compound]",isoelectric point,[2],approx. 5.4
same,isoelectric point,[2]; listed as spot A,5.4
recombinant eIF5A (RCP): FLAG- and His-tagged human eIF5A collected from reoxygenation-conditioned PBS of transfected quail muscle cells; secreted form,induction of apoptosis (TUNEL staining),[4],induced apoptosis
same,induction of apoptosis (TUNEL staining),[5],induced apoptosis
same,cytosolic fractions of cytochrome c,[6],markedly increased
same,active form of caspase-3,[7],markedly increased
same,translocation of the apoptosis-inducing factor (AIF) from the cytosol (mitochondria) to the nucleus,[8],induced translocation
same,induction of apoptosis (TUNEL staining),[9],not induced until 72 hours
same,induction of apoptosis of cultured cardiac myocytes (TUNEL and cardiac myosin double staining),[1],potently induced apoptosis
same,induction of apoptosis (TUNEL staining),[10],induced apoptosis
same,nuclear chromatin by electron microscopy,[11],hypercondensation of nuclear chromatins
same,induction of apoptosis by Annexin-V staining,[12],further confirmed
